From patent US20240307415A1, “STEROID COMPOUND, AND PHARMACEUTICAL COMPOSITION THEREOF AND USE THEREOF” (JIANGSU SIMCERE PHARMACEUTICAL CO., LTD., priority 2021, published 2024)

How the values were obtained:
[1] = molecular target: Glucocorticoid Receptor GR (Homo sapiens (Human), UniProt P04150); experiment: Binding activity to glucocorticoid receptor GR (Polarscreen fluorescence polarization kit); conditions: GR full length, 2 h
Protocol: The binding activity of the compound to GR was determined using the Polarscreen Glucocorticoid Receptor Assay Kit, Red (brand: Thermo, Cat. No: A15898). […] The highest concentration was 100 μM, 8 concentrations in total. […] With the log value of the final concentration of the compound as the X axis and the mP value as the Y axis, data was input into the processing software Graphpad Prism 9, and the EC50 value was calculated by four-parameter fitting

[2] = Membrane permeability and transport properties (Caco-2); format: in vitro ADME; conditions: human, pH 7.4, Caco-2, 10 μM
Text: • 1. Caco-2 cells (ATCC) • 2. HEPES (Solarbio 804D049), penicillin/streptomycin (Solarbio 20200109), and PBS (Solarbio 20200620) • 3. Fetal Bovine Serum (FBS) (Sigma WXBD0055V), lucifer yellow (Sigma MKCJ3738), and NaHCO3 (Sigma SLBZ4647) • 4. Hank's balanced salt solution (HBSS) (Gibco 2085528), non-essential amino acid (NEAA) (Gibco 2211548), and Trypsin/EDTA (Gibco 2120732) • 5. High glucose DMEM (Corning 20319014) • 6. HTS Transwell-96 Well Permeable (Corning, 3391) • 7. Resistance detector (Millipore, Millicell® ERS-2) • 8. Cellometer® Vision (Nexcelom Bioscience) • 9. Infinite 200 PRO microplate reader (Tecan, Infinite M200PRO) • 10. Positive control compound metoprolol (Sinopharm 100084-201403), erythromycin (MCE 84550), and cimetidine (Sinopharm 100158-201406) • 11. ABI QTrap 5500 liquid chromatography-mass spectrometry system
• 1. […] Evaluation of integrity of monolayer cell membrane • 1) The cells fused and differentiated after 14 days of culture and were ready for a transport experiment. • 2) The resistance of the monolayer membrane was measured using a resistance detector. The resistance of each well was recorded. • 3) After measurement, the Transwell culture plate was re-incubated. • 4) The TEER value was calculated: […]

CHS mouse model = experiment: Efficacy test in CHS mouse model (FITC sensitization, right ear thickness); format: in vivo, C57BL/6N mice; conditions: 3 μg/mouse
Protocol: Construction of CHS mouse model: 6- to 8-week-old female C57BL/6N mice (Beijing Vital River Laboratory Animal Technology Co., Ltd.) were selected, and all mice were shaved off abdominal hair using a small animal hair clipper. 400 μL of the sensitizer was pipetted with a micropipette and applied evenly to the abdomen of the mice for epidermal sensitization. After application, the mice were held for 3-5 s and the solvent was allowed to evaporate from the skin as clean as possible. The specific preparation method for the sensitizer was: 0.5 g of FITC (fluorescein isothiocyanate; sigma-Aldrich) powder was weighed and fully dissolved in a solvent of 50 mL of acetone (SinoPharm reagent) and 50 mL of DBP (dibutyl phthalate; sigma-Aldrich) in equal proportion to give the sensitizer with the FITC content of 0.5%. On the 6th day after sensitization, the thickness of the right ear of the mice was measured with a dial thickness gauge as a baseline value, then a freshly prepared sensitizer was pipetted with a micropipette and applied evenly inside and outside of the right ear of the mice respectively for epidermal stimulation, and 10 μL of the sensitizer was applied on each side. 24 h after stimulation, the thickness of the right ear of the mice was measured again with a dial thickness gauge to obtain the thickness change of the right ear of the mice, A thickness of right ear=(thickness of right ear 24 h after stimulation)−(baseline value of thickness of right ear).
Therapeutic regimen for CHS model mouse: mice were divided into a blank group, a negative control group, a positive control group, and an experimental group. […] The drug was administered by one-time intraperitoneal injection 1 h before the right ear epidermal stimulation.

Sequence of Glucocorticoid Receptor GR (P04150 whole entry): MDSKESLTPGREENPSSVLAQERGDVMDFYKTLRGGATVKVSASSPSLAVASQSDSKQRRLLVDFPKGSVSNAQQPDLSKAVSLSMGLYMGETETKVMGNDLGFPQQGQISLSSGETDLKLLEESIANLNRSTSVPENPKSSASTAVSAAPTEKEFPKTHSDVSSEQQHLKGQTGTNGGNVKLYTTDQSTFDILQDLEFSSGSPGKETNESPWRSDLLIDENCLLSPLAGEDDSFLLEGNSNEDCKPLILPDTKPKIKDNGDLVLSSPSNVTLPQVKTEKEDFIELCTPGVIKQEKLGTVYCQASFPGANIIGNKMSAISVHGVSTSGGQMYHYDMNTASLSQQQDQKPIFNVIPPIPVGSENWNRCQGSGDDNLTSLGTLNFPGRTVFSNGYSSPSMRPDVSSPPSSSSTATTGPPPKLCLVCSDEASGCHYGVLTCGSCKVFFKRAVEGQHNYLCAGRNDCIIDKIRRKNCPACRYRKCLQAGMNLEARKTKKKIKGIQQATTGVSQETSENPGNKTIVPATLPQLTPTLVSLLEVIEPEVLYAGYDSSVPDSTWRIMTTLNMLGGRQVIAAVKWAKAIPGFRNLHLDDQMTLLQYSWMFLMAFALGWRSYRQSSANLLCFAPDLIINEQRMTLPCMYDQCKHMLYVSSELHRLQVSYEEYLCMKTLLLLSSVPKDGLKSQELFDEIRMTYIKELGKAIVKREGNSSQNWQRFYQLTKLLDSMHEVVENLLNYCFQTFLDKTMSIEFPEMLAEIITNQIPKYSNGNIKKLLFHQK

Work on C[C@]12C=CC(=O)C=C1CC[C@@H]1[C@@H]2[C@@H](O)C[C@@]2(C)[C@H]1C[C@H]1O[C@@H](c3ccc(Cc4cc(N)c5c(c4)CCO5)cc3)O[C@]12C(=O)CO [Compound 009, (6aR,6bS,7S,8aS,8bS,10R,11aR,12aS,12bS)-10-(4-((7-amino-2,3-dihydrobenzofuran-5-yl)methyl)phenyl)-7-hydroxy-8b-(2-hydroxyacetyl)-6a,8a-dimethyl-6a,6b,7,8,8a,8b,11a,12,12a,12b-decahydro-1H-naphtho[2′,1′:4,5]indeno[1,2-d][1,3]dioxolan-4(2H)-one] yielded an EC50 [1] of 20.2 nM, a Papp A→B at 2 h, 10 μM ([2]; apical to basal) of 0.73 ×10⁻⁶ cm/s and a Papp B→A at 2 h, 10 μM ([2]; basal to apical) of 3.86 ×10⁻⁶ cm/s. For the same compound, the “thickness of the right ear in CHS mice compared to the negative control group” value (CHS mouse model; one-time intraperitoneal injection 1 h before right ear stimulation, measured 24 h after stimulation) was “significant decrease” and the “efficacy compared with positive reference compound a at the same dose” value (CHS mouse model; one-time intraperitoneal injection, CHS mice, right ear thickness) was “superior in efficacy to the positive reference compound a”.
